Here are results for 28 compounds from patent US7964624B1, “Inhibitors of serine proteases” (priority 2005, dated 2011).

A value given as a limit tells only on which side of the number the result lay.

Assay [1] addresses T1, HCV NS3 protease domain (Hepatitis C virus genotype 1b, UniProt Q9WMX2).
T1 construct: The first 181 amino acids of NS3 (residues 1027-1207 of the viral polyprotein); hexa-histidine (C); made in house; host or cells: E. coli BL21/DE3 pLysS
Nature of the assay: biochemical. As to conditions: Enzyme Assay 1 (HCV NS3 Protease Domain Peptide Cleavage Assay) activity, apparent Ki class.

Assay [2] concerns the target T2, full-length hepatitis C viral protein NS3•4A (Hepatitis C virus genotype 1a, UniProt P27958).
T2 construct: hexa-histidine (N); made in house; host or cells: Sf9 insect cells (baculovirus, pVL1392)
Nature of the assay: biochemical. Also on record: species or system HCV sub-type strain 1a. As to conditions: Enzyme Assay 2 (HCV NS3 Peptide Cleavage Assay) activity, apparent Ki class.

Turning to `CCC[C@H](NC(=O)[C@@H]1C[C@]2(CC(c3cccc(Cl)c3)=NO2)CN1C(=O)[C@@H](NC(=O)CC1CCCCC1)C(C)(C)C)C(=O)C(=O)NC(C)C` [Compound 275], the Ki in assay [1] and in assay [2] was 100 to 500 nM each time.

For `CCC[C@H](NC(=O)[C@@H]1C[C@]2(CC(c3cccc(Cl)c3)=NO2)CN1C(=O)[C@@H](NC(=O)CC1CCCCC1)C(C)(C)C)C(=O)C(=O)NC[C@H]1CCCO1` [Compound 277], the Ki in assay [1] was greater than 500 nM; in assay [2] it was 100 to 500 nM.

`CCC[C@H](NC(=O)[C@@H]1C[C@]2(CC(c3cccc(Cl)c3)=NO2)CN1C(=O)[C@@H](CC(=O)NC(C)C)C(C)C)C(=O)C(=O)NC1CC1` [Compound 280]: the Ki in assay [1] and in assay [2] was greater than 500 nM each time.

Turning to `COc1cc(OC)c(C2=NO[C@]3(C2)C[C@@H](C(=O)NC(CC2CCC2)C(=O)C(=O)NC2CC2)N(C(=O)[C@@H](NC(=O)CC2CCOCC2)C(C)(C)C)C3)cc1Cl` (some centres unmarked) [Compound 282], the Ki in assay [1] is greater than 500 nM; in assay [2] it was 100 to 500 nM.

Consider `CCC[C@H](NC(=O)[C@@H]1C[C@]2(CC(c3cccc(Cl)c3)=NO2)CN1C(=O)[C@@H](NC(=O)[C@@H](C)C1CCCCC1)C(C)(C)C)C(=O)C(=O)NC1CC1` [Compound 284], for which the Ki in assay [1] and in assay [2] was 100 to 500 nM throughout.

As to `CCC[C@H](NC(=O)[C@@H]1C[C@]2(CC(c3cccc(Cl)c3)=NO2)CN1C(=O)[C@H](Cc1ccccc1C(F)(F)F)NC(=O)CC1CCCCC1)C(=O)C(=O)NC1CC1` [Compound 289], the Ki in assay [1] was greater than 500 nM; in assay [2], 100 to 500 nM.

Regarding `CCC[C@H](NC(=O)[C@@H]1C[C@]2(CC(c3cncc(Cl)c3)=NO2)CN1C(=O)[C@@H](NC(=O)CC1CCCCC1)C(C)(C)C)C(=O)C(=O)NC1CC1` [Compound 292], the Ki in assay [1] was 100 to 500 nM; in assay [2] it was less than 100 nM.

In the case of `CCC[C@H](NC(=O)[C@@H]1C[C@]2(CC(c3cccc(Cl)c3)=NO2)CN1C(=O)[C@@H](NC(=O)CC1CCCCC1)C(C)(C)C)C(=O)C(=O)Nc1ccon1` [Compound 293], the Ki in assay [1] and in assay [2] was greater than 500 nM in each case.

`CCC[C@H](NC(=O)[C@@H]1C[C@]2(CC(c3cccc(Cl)c3)=NO2)CN1C(=O)[C@@H](NC(=O)CC1CCCCC1)C(C)(C)C)C(=O)C(=O)N[C@H](C)c1ccccc1` [Compound 296]: the Ki in assay [1] and in assay [2] was greater than 500 nM each time.

As for `CCC[C@H](NC(=O)[C@@H]1C[C@]2(CC(c3cccc(Cl)c3)=NO2)CN1C(=O)[C@@H](NC(=O)CC1CCCCC1)C(C)(C)C)C(=O)C(=O)NCc1cccc(-n2cccn2)c1` [Compound 298], the Ki in assay [1] and in assay [2] was 100 to 500 nM throughout.

Consider `CCC[C@H](NC(=O)[C@@H]1C[C@]2(CC(c3cccc(Cl)c3)=NO2)CN1C(=O)[C@@H](NC(=O)CC1CCCCC1)C(C)(C)C)C(=O)C(=O)NC(CC)CC` [Compound 300], for which the Ki in assay [1] and in assay [2] was 100 to 500 nM in each case.

`CCC[C@H](NC(=O)[C@@H]1C[C@]2(CC(c3cccc(Cl)c3)=NO2)CN1C(=O)[C@@H](NC(=O)CC1CCCCC1)C(C)(C)C)C(=O)C(=O)NCCc1c[nH]c2ccc(OC)cc12` [Compound 302]: the Ki in assay [1] and in assay [2] was 100 to 500 nM in each case.

On to `CCC[C@H](NC(=O)[C@@H]1C[C@]2(CC(c3cccc(Cl)c3)=NO2)CN1C(=O)[C@@H](NC(=O)CC1CCN(C(C)=O)CC1)C(C)(C)C)C(=O)C(=O)NC1CC1` [Compound 304], for which the Ki in assay [1] was 100 to 500 nM; in assay [2], less than 100 nM.

`CCC[C@H](NC(=O)[C@@H]1C[C@]2(CC(c3cc(Cl)c(OC)cc3OC)=NO2)CN1C(=O)[C@@H](NC(=O)CC1CCCCC1)C(C)(C)C)C(=O)C(=O)NC1CC1` [Compound 307]: the Ki in assay [1] is 100 to 500 nM; in assay [2], less than 100 nM.

Consider `CCC[C@H](NC(=O)[C@@H]1C[C@]2(CC(c3cccc(Cl)c3)=NO2)CN1C(=O)CCNS(=O)(=O)c1ccc(NC(C)=O)cc1)C(=O)C(=O)NC1CC1` [Compound 309], for which the Ki in assay [1] and in assay [2] was greater than 500 nM each time.

Consider `CCC[C@H](NC(=O)[C@@H]1C[C@]2(CC(c3cnc(OC)c(Cl)c3)=NO2)CN1C(=O)[C@@H](NC(=O)CC1CCCCC1)C(C)(C)C)C(=O)C(=O)NC1CC1` [Compound 312], for which the Ki in assay [1] and in assay [2] was less than 100 nM each time.

`CCC[C@H](NC(=O)[C@@H]1C[C@]2(CC(c3cc(Cl)c4c(c3)OCCN4C)=NO2)CN1C(=O)[C@@H](NC(=O)CC1CCCCC1)C(C)(C)C)C(=O)C(=O)NC1CC1` [Compound 315]: the Ki in assay [1] and in assay [2] was less than 100 nM each time.

On to `CC(C)(C)OC(=O)N[C@H]1CCCCC/C=C\[C@@H]2C[C@@]2(C(=O)O)NC(=O)[C@@H]2C[C@]3(CC(C(=O)c4ccccc4)=NO3)CN2C1=O` [Compound 320], for which the Ki in assay [1] and in assay [2] was greater than 500 nM in each case.

For the compound `CCC[C@H](NC(=O)[C@@H]1C[C@]2(CC(c3cc(Cl)cc(OC)c3OC)=NO2)CN1C(=O)[C@@H](NC(=O)CC1CCCCC1)C(C)(C)C)C(=O)C(=O)NC1CC1` [Compound 321], the Ki in assay [1] is 100 to 500 nM; in assay [2] it was less than 100 nM.

Regarding `CCC[C@H](NC(=O)[C@@H]1C[C@]2(CC(c3cc(Cl)c(OC)cc3OC)=NO2)CN1C(=O)[C@@H](NC(=O)CC1CCOCC1)C(C)(C)C)C(=O)C(=O)NC1CC1` [Compound 326], the Ki in assay [1] and in assay [2] was 100 to 500 nM in each case.

`CCC[C@H](NC(=O)[C@@H]1C[C@]2(CC(c3cccc(Cl)c3)=NO2)CN1C(=O)c1cccc(S(=O)(=O)N2CCc3ccccc3C2)c1)C(=O)C(=O)NC1CC1` [Compound 328]: the Ki in assay [1] and in assay [2] was greater than 500 nM in each case.

With `CCC[C@H](NC(=O)[C@@H]1C[C@]2(CC(c3cccc(Cl)c3)=NO2)CN1C(=O)[C@H](Cc1ccc(OC(C)C)cc1)NC(C)=O)C(=O)C(=O)NC1CC1` [Compound 332], the Ki is greater than 500 nM in assay [1] and 100 to 500 nM in assay [2].

`CCC[C@H](NC(=O)[C@@H]1C[C@]2(CC(c3cccc(Cl)c3)=NO2)CN1C(=O)[C@H](Cc1csc2ccccc12)NC(=O)CC1CCCCC1)C(=O)C(=O)NC1CC1` [Compound 336]: the Ki in assay [1] and in assay [2] was greater than 500 nM each time.

Consider `CCC[C@H](NC(=O)[C@@H]1C[C@]2(CC(c3cccc(Cl)c3)=NO2)CN1C(=O)[C@H](Cc1ccccc1F)NC(=O)CC1CCCCC1)C(=O)C(=O)NC1CC1` [Compound 338], for which the values for the Ki in assay [1] and in assay [2] were greater than 500 nM and 100 to 500 nM, respectively.

`CCC[C@H](NC(=O)[C@@H]1C[C@]2(CC(c3cccc(Cl)c3)=NO2)CN1C(=O)[C@@H](NC(=O)Cc1cncc(Br)c1)C(C)(C)C)C(=O)C(=O)NC1CC1` [Compound 339]: the Ki is 100 to 500 nM in assay [1] and less than 100 nM in assay [2].

In the case of `CCC[C@H](NC(=O)[C@@H]1C[C@]2(CC(c3cccc(Cl)c3)=NO2)CN1C(=O)[C@@H](NC(=O)CC1CCCCC1)C(C)(C)C)C(=O)C(=O)N1CCC[C@@H]1COC` [Compound 347], the Ki in assay [1] and in assay [2] was greater than 500 nM in each case.

For the compound `CCC[C@H](NC(=O)[C@@H]1C[C@]2(CC(c3cccc(Cl)c3)=NO2)CN1C(=O)[C@@H](NC(=O)CC1CCCCC1)C(C)(C)C)C(=O)C(=O)N(C)CCC` [Compound 350], the Ki in assay [1] and in assay [2] was greater than 500 nM throughout.

In the case of `CCC[C@H](NC(=O)[C@@H]1C[C@]2(CC(c3cccc(Cl)c3)=NO2)CN1C(=O)CC(C)(C)C)C(=O)C(=O)NC1CC1` [Compound 351], the Ki in assay [1] and in assay [2] was greater than 500 nM each time.
